In ChEMBL document CHEMBL1201862, “PubChem BioAssay data set” (2004):
Values belong to the compound of their own block, whether it stands above or below them. The source made the active and inactive calls.

Legend:
[1] = molecular target: T1, Sentrin-specific protease 8 (Homo sapiens, UniProt Q96LD8); assay: SENP8 protease inhibitors, SAR follow-up, biochemical, luminescence (AID 504501); format: functional
T1 sequence (Q96LD8 whole entry): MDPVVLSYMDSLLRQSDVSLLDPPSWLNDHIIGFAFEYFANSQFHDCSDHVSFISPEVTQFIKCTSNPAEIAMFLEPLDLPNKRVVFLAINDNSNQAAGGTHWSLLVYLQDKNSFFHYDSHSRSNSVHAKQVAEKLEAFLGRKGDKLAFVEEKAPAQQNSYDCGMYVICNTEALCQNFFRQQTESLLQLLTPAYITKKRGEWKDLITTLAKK

[2] = molecular target: T2, Sentrin-specific protease 6 (Homo sapiens, UniProt Q9GZR1); assay: SENP6 protease inhibitors, SAR follow-up, biochemical, luminescence, set 2 (AID 588598); format: functional
T2 sequence (Q9GZR1 whole entry): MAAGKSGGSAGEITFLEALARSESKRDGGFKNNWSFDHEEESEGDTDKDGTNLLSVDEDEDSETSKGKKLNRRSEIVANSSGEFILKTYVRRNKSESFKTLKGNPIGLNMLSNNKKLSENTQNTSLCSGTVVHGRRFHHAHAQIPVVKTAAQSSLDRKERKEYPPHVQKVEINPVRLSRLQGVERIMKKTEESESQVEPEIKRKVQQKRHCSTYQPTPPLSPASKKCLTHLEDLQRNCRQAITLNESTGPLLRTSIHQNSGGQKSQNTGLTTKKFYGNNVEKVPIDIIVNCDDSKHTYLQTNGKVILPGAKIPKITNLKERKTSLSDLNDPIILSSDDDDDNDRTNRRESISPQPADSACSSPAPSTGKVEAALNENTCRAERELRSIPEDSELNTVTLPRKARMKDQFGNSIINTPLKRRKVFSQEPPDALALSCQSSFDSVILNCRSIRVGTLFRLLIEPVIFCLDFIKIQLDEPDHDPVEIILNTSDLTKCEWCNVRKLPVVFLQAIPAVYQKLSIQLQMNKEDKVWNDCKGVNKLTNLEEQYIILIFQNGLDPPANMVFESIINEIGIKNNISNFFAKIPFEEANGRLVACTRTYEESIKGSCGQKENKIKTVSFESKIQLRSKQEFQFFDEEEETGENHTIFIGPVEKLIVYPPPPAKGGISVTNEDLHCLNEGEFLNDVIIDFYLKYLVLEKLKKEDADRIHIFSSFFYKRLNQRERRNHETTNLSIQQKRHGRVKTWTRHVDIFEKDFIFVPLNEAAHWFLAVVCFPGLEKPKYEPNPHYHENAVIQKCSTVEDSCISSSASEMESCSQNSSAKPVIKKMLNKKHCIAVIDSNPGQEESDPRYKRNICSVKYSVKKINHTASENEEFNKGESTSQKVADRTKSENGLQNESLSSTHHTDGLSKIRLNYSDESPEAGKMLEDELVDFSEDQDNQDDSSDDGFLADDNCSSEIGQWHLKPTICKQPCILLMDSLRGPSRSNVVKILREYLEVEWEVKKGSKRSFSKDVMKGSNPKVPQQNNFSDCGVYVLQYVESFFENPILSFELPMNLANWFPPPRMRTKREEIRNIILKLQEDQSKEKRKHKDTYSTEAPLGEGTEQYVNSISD

[3] = molecular target: T3, Sentrin-specific protease 7 (Homo sapiens, UniProt Q9BQF6); assay: SENP7 protease inhibitors, SAR follow-up, biochemical, luminescence, set 2 (AID 588600); format: functional
T3 sequence (Q9BQF6 whole entry): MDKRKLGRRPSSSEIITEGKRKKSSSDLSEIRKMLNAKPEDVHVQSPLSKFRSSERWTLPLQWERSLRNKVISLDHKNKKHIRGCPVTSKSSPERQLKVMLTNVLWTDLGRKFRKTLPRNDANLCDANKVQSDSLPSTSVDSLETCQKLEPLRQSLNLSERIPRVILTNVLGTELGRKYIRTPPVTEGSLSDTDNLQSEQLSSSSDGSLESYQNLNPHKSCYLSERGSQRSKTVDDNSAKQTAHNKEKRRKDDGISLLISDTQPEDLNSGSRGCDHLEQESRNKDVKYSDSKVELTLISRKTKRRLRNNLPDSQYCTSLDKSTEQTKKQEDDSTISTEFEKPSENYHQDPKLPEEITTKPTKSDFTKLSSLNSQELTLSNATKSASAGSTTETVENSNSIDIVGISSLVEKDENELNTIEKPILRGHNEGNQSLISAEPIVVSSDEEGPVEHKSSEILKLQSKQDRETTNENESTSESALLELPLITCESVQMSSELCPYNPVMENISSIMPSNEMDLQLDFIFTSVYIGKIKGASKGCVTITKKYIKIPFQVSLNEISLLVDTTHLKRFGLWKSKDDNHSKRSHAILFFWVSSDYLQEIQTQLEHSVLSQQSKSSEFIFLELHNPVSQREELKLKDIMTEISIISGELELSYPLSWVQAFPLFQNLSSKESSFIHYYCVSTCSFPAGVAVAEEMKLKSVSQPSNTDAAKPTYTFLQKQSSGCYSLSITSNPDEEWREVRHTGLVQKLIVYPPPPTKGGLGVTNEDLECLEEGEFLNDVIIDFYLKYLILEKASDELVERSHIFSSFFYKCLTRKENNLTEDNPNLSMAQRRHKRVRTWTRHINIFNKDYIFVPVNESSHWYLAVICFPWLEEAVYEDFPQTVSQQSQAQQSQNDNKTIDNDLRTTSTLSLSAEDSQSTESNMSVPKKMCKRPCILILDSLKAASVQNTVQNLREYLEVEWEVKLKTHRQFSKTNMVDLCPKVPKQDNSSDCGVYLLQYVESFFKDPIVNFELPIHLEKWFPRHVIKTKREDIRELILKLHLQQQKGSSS

[4] = molecular target: T4, Caspase-3 (Homo sapiens, UniProt P42574); assay: caspase-3 inhibitors as off-family protease, SAR follow-up, selectivity assay for SENP protease inhibitor project, biochemical, luminescence, set 2 (AID 588599); format: functional
T4 sequence (P42574 whole entry): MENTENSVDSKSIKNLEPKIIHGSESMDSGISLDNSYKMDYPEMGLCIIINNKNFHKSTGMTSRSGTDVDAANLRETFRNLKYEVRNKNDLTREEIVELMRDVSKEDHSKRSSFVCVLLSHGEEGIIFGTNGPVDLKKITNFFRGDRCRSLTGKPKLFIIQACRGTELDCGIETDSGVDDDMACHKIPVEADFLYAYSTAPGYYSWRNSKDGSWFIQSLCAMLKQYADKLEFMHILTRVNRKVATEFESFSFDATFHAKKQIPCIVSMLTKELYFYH

[5] = molecular target: T2, Sentrin-specific protease 6; assay: SAR Analysis of small molecule inhibitors of Sentrin-specific protease 6 (SENP6) using a Luminescent assay. [Related pubchem assays (depositor defined):AID2582, AID2599]; format: functional
[6] = molecular target: T3, Sentrin-specific protease 7; assay: SENP7 protease inhibitors, SAR follow-up, biochemical, luminescence (AID 504497); format: functional
[7] = molecular target: T4, Caspase-3; assay: SAR Analysis of small molecule inhibitors of Sentrin-specific proteases (SENPs) using a Caspase-3 Selectivity assay. [Related pubchem assays (depositor defined):AID2540, AID2599, AID434973, AID489001]; format: functional
[8] = molecular target: T1, Sentrin-specific protease 8; assay: SENP8 protease inhibitors, SAR follow-up, biochemical, luminescence, set 2 (AID 588601); format: functional
[9] = molecular target: T5, Insulin-degrading enzyme (Homo sapiens, UniProt P14735); assay: activators of endogenous IDE in HEK cells, dose response, cell-based, fluorescence polarization (AID 588439); format: functional
T5 sequence (P14735 whole entry): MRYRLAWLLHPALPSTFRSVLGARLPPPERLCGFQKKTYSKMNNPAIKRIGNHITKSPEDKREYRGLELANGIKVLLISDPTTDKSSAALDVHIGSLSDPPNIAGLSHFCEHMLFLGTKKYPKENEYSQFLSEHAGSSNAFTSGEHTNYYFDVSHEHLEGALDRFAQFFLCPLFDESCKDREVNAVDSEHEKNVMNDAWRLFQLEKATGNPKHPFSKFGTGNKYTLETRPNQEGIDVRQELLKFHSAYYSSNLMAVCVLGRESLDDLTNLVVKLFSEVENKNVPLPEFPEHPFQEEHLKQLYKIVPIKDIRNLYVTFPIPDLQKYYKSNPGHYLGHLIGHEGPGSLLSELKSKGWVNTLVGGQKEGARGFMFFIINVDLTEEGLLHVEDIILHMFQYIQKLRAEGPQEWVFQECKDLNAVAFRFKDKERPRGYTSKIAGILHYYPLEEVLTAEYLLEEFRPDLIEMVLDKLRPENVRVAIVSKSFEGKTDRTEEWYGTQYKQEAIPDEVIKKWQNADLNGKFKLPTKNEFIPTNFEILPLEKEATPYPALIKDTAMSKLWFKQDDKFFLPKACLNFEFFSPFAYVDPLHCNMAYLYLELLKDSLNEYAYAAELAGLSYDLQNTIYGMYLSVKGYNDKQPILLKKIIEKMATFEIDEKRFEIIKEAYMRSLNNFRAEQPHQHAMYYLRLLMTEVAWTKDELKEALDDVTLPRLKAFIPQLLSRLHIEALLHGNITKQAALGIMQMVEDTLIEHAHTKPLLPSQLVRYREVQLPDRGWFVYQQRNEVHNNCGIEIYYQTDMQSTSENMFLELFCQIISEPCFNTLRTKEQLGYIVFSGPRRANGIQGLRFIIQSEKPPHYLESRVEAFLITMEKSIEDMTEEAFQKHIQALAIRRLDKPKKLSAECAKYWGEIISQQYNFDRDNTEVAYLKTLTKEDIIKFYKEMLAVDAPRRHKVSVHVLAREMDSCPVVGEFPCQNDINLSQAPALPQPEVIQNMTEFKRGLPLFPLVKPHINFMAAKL

[10] = system: BJ; assay: cytotoxicity toward BJ-TERT-LT-ST fibroblasts, dose response, cell-based, RAS-independent, luminescence (AID 1935); format: functional; details: Homo sapiens;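 further: BJ fibroblasts immortalized with TERT plus LT and ST oncogenes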
[11] = system: HEK293; assay: HEK cell cytotoxicity by LDH release, dose response, cytotoxicity control for IDE activator project, fluorescence, HEK cells (AID 588440); format: functional, cell-based; details: Homo sapiens;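 further: cytotoxicity by LDH release measuring loss of membrane integrity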
[12] = AlphaScreen signal interference compounds, dose response, artefact control for ARNT-TACC3 interaction inhibitor project, biochemical, luminescence, cherry-pick (AID 651705); format: functional;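 further: AlphaScreen bead proximity signal that flags compounds interfering with the detection technology; potency reflects signal decrease which marks the compound as an assay artifact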
[13] = system: HEK293; assay: optical interference in Abeta FP readout, dose response, artefact control for IDE activator project, biochemical, fluorescence polarization (AID 588442); format: functional, cell-based; details: Homo sapiens
[14] = cytotoxicity toward DRD oncogenic fibroblasts, dose response, cell-based, non-viral oncogenic, luminescence (AID 1934); format: functional; details: Homo sapiens
[15] = molecular target: T5, Insulin-degrading enzyme; assay: activators of recombinant IDE enzyme, dose response, counter-screen for IDE activator project, biochemical, fluorescence polarization (AID 588681)
[16] = system: BJ; assay: cytotoxicity toward BJ-TERT fibroblasts, dose response, cell-based, RAS-independent, luminescence (AID 1933); format: functional; details: Homo sapiens
[17] = system: BJ; assay: cells; format: functional, cell-based; details: Homo sapiens
[18] = molecular target: DNA dC->dU-editing enzyme APOBEC-3A (Homo sapiens, UniProt P31941); assay: SAR analysis of small molecule inhibitors of APOBEC3A DNA Deaminase via a fluorescence-based single-stranded DNA deaminase assay.; format: functional; details: read-out: IC50_Mean
DNA dC->dU-editing enzyme APOBEC-3A, sequence (P31941 whole entry): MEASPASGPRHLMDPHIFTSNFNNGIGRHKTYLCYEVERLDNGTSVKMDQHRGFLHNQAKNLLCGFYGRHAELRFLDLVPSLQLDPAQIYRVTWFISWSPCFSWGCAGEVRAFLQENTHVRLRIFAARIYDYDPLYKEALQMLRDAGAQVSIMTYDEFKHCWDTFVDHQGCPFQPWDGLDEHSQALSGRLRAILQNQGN

[19] = molecular target: DNA dC->dU-editing enzyme APOBEC-3G (Homo sapiens, UniProt Q9HC16); assay: APOBEC3G deaminase inhibitors, SAR follow-up, biochemical, fluorescence, single-stranded DNA substrate (AID 602136); format: functional; details: read-out: IC50_Mean
DNA dC->dU-editing enzyme APOBEC-3G, sequence (Q9HC16 whole entry): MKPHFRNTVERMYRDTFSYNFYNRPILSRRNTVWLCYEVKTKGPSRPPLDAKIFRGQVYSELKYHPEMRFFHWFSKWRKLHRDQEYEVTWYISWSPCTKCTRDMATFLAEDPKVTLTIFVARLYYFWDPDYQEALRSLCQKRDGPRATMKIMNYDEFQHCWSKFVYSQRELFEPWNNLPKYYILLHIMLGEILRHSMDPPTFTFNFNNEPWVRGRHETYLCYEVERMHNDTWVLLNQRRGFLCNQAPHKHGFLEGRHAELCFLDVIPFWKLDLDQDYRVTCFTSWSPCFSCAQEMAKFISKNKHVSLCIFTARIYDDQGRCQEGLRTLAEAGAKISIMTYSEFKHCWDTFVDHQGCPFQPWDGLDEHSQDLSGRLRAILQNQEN

IC50 [2]: 8.58 µM (active) | IC50 [3]: 29.4 µM (active) | IC50 [4]: 68.4 µM (active) | IC50 [5]: > 99 µM (inactive) | IC50 [6]: 6.4 µM (active) | IC50 [7]: 51 µM (active)
SMILES: CCCCc1ccc2nc(NC(=O)c3cc(C)cs3)sc2c1
IC50 [1]: > 99 µM (inactive) | IC50 [8]: 8.25 µM (active)

SMILES: CCN(CC)c1ccc(/C=N/N=C(N)N)c(O)c1
EC50 [9]: > 54.7 µM (inactive) | EC50 [10]: 1.51 µM (inconclusive) | IC50 [11]: > 89.2 µM (inactive) | AC50 [12]: 115 µM (active) | EC50 [13]: > 54.7 µM (inactive) | EC50 [14]: 1.19 µM (active) | EC50 [15]: > 54.7 µM (inactive) | EC50 [16]: 1.47 µM (active) | EC50 [17]: 2.16 µM (active)

SMILES: Fc1ccc(Nc2nc(Nc3ccc(Cl)c(Cl)c3)nc(N3CCOCC3)n2)cc1
IC50 [18]: > 99 µM (inactive) | IC50 [19]: > 99 µM (inactive)
